This is an account of results in publication PMC3989841 (Journal of nuclear medicine : official publication, Society …, 2013).

“And” between values parts separate entries of the source, which are not always exact repeats. Equal entries are not always repeated.

The conditions of data set [1]: normal renal function; cited from earlier work.
The nature of data set [2]: Percentage injected dose in urine, voided at 30 and 180 min. As to conditions: for Percentage of injected dose in urine: individual patients 1–8; for Percentage of injected dose in urine, mean ± SD: mean ± SD of 8 subjects.
Data set [3] is described as follows: Red cell. The settings on record: mean ± SD of 8 subjects with chronic kidney disease.
A short description of data set [4]: Plasma protein binding. As to conditions: mean ± SD of 8 subjects with chronic kidney disease.
The conditions of data set [5]: mean ± SD, subjects with chronic kidney disease.
For data set [6] the following is noted: mean of subjects with reduced renal function.
The conditions of data set [7]: renal extraction; cited from earlier work.

Turning to `O=C(O)CNC(=O)c1ccccc1[131I]` [^131I-OIH, ^131I-o-iodohippuran], the Normal plasma clearance in data set [1] is 472 to 530 mL/min. Also, the “Percentage of injected dose in urine” value in data set [2] (30 min after injection) was 46% and 47% and 24% and 38% and 50% and 42% and 41% and 33%; in data set [2] (180 min after injection) it was 81% and 59% and 76% and 98% and 75% and 77% and 79%. Besides, the “Percentage of injected dose in urine, mean ± SD” value is reported as 40 ± 8% in data set [2] (30 min after injection); 78% ± 11% in data set [2] (180 min (3 h) after injection); 78 ± 11% in data set [2] (180 min (3 h) after injection, listed as OIH). Moreover, the “RBC (%) (red cell uptake), mean ± SD” value was 16% ± 2% in data set [3] and 16 ± 2% in data set [3] (listed as OIH). The “PPB (%), mean ± SD” value in data set [4] turned out to be 71 ± 5%. The “Relative uptake in the left kidney” value in data set [5] is recorded as 55.5% ± 8.1%. The “Mean plasma clearance (not normalised to body surface)” value in data set [6] was 198 mL/min.

Regarding `O=C([O-])CN(CCN(CC(=O)[O-])CC(=O)[O-])CCN(CC(=O)[O-])CC(=O)[O-].[99Tc+4]` [^99mTc-DTPA, ^99mTc-diethyltriaminepentaacetic acid], the Extraction fraction result in data set [7] is given as “approximately 20%”.
